Here are results for one compound from ChEMBL document CHEMBL4402585 (J Med Chem, 2020).

As a reminder, the IC50 is the concentration at which inhibition is half-maximal. The term bioavailability denotes dose-corrected exposure relative to a reference, in per cent. As usually defined, the half-life is the time needed for the level to fall by half in the phase considered. The term AUC(0-t) denotes exposure summed from dosing to a finite time, without extrapolation to infinity.

The subject of series [1] is MV4-11. Nature of the series: Cell cycle arrest in human MV4-11 cells assessed as increase in accumulation at G1-phase at 31.25 nM measured after 24 hrs by propidium iodide staining based flow cytometry. The format is functional. In general terms: In flow cytometry, cells or beads pass a laser one at a time.
A short description of series [2]: Clearance in monkey liver microsomes at 0.1 uM preincubated for 10 mins followed by NADPH addition and measured up to 60 mins by LC-MS/MS analysis. The format is ADME, Macaca mulatta, Microsome. To be noted: rhesus monkey, 1 h. (In general: Microsomes from liver hold many membrane-bound enzymes, among them those of drug oxidation.)
The test system of series [3] is MV4-11. The series can be described thus: Antiproliferative activity against human MV4-11 cells assessed as reduction in cell viability measured after 72 hrs by Celltitre-glo luminescence assay. The format is functional, cell-based. As to conditions: MV4-11, 72 h.
A short description of series [4]: Oral bioavailability in Sprague-Dawley rat at 3 mg/kg by LC-MS/MS analysis. Format: ADME, organism-based. As to conditions: in vivo.
For the next series, the system named is Kasumi 1. Nature of the series: Antiproliferative activity against human Kasumi-1 cells assessed as reduction in cell viability measured after 72 hrs by Celltitre-glo luminescence assay. As to conditions: Kasumi 1, 72 h. Format: functional, cell-based.
Series [5] is described as follows: Half life in mouse at 3 mg/kg, iv by LC-MS/MS analysis. The format is ADME, organism-based. As to conditions: in vivo.
Series [6] in a line: Half life in rat liver microsomes at 0.1 uM preincubated for 10 mins followed by NADPH addition and measured up to 60 mins by LC-MS/MS analysis. The format is ADME, Microsome.
Series [7] can be described thus: AUC (0 to t) in mouse at 3 mg/kg, iv by LC-MS/MS analysis. The format is ADME, organism-based. As to conditions: in vivo.
The nature of series [8]: AUC (0 to t) in Sprague-Dawley rat at 1 mg/kg, iv by LC-MS/MS analysis. To be noted: in vivo. Format: ADME, organism-based.
The test system of another series is RS4-11. Nature of the series: Antiproliferative activity against human RS4:11 cells assessed as reduction in cell viability measured after 72 hrs by Celltitre-glo luminescence assay. The format is functional, cell-based. To be noted: RS4-11, 72 h.
The nature of series [9]: Clearance in human liver microsomes at 0.1 uM preincubated for 10 mins followed by NADPH addition and measured up to 60 mins by LC-MS/MS analysis. The format is ADME, Microsome. To be noted: 1 h.
Series [10] deals with MV4-11. The series can be described thus: Antitumor activity against human MV4-11 cells xenografted in mouse assessed as tumor growth inhibition at 12.5 mg/kg, po administered for 28 days and measured every 2 to 3 days during compound dosing relative to control. Format: functional. To be noted: MV4-11, po, read-out: TGI. (Xenograft models place foreign cells or tissue in a host animal.)

The nature of series [11]: AUC (0 to t) in mouse at 3 mg/kg, po by LC-MS/MS analysis. Format: ADME, organism-based. As to conditions: in vivo.
Another series has as its target Cytochrome P450 2C9 (Homo sapiens, UniProt P11712). Nature of the series: Inhibition of CYP2C9 in human liver microsomes using tolbutamide as substrate preincubated for 10 mins followed by NADPH addition and measured after 15 mins by LC-MS/MS analysis. The format is ADME.
The next series deals with Cytochrome P450 2D6 (Homo sapiens, UniProt P10635). The series can be described thus: Inhibition of CYP2D6 in human liver microsomes using dextromethorphan as substrate preincubated for 10 mins followed by NADPH addition and measured after 15 mins by LC-MS/MS analysis. Format: ADME.
Sequence of Cytochrome P450 2D6 (P10635 whole entry): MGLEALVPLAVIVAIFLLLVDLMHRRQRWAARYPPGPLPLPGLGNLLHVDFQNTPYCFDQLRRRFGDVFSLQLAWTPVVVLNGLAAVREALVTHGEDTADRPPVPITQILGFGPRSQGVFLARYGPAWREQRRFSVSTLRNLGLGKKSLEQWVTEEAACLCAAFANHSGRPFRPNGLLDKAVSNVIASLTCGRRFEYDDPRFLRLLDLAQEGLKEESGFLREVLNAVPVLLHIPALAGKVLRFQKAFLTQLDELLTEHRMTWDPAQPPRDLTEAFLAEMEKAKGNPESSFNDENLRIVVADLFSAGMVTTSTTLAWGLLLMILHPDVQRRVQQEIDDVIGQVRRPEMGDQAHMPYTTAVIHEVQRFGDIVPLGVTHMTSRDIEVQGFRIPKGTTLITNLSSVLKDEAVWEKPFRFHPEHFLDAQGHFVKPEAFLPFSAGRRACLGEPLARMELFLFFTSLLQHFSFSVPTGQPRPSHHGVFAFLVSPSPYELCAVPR
The target in series [12] is Bromodomain-containing protein 4 (Homo sapiens, UniProt O60885). Nature of the series: Inhibition of BRD4 in human MV4-11 cells assessed as up regulation of p21 expression measured after 6 to 24 hrs by Western blot analysis. The format is cell-based.

Active and inactive are the calls of the source.

Sequence of Cytochrome P450 2C9 (P11712 whole entry): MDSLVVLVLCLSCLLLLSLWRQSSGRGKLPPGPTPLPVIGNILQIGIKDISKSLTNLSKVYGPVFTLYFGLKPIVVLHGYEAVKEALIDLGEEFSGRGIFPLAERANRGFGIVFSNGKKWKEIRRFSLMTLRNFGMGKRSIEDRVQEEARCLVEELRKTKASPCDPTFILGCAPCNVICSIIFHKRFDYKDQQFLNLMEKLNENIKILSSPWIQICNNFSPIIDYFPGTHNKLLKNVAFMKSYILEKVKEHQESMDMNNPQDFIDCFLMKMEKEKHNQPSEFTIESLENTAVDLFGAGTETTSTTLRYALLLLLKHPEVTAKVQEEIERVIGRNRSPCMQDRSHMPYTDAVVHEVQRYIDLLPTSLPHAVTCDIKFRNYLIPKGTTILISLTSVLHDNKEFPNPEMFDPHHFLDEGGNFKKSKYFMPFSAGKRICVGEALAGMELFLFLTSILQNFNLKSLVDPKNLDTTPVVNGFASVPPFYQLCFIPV

In the case of `CCS(=O)(=O)Cc1cnc(Oc2ccc(F)cc2F)c(-c2cc(C)c3c(=O)[nH]ccn23)c1`, in the series on MV4-11 [1], the outcome was Active. Further, the CLH in [2] was determined as 42.7 mL/min/g. Also, the IC50 was 2.4 nM with MV4-11 [3]; 7.4 nM in the series with Kasumi 1; 22.1 nM in the series on RS4-11; > 20 µM against Cytochrome P450 2C9; > 20 µM on Cytochrome P450 2D6. In addition, the bioavailability in series [4] was determined as 34.7%. The half-life in series [5] was 54 min. The compound also yielded a half-life at 0.1 µM in series [6] of 32.4 min. Moreover, the AUC(0-t) in series [7] was 3270 ng·h/mL; in [8] it was 848 ng·h/mL; in series [11], 1710 ng·h/mL. In [9], the Microsomal intrinsic clearance came to 12.2 mL/min/g. In addition, the inhibition in vivo at 12.5 mg/kg in the series with MV4-11 [10] turned out to be 99.7%. In series [12], the inhibition entry was “Dose-dependent effect”.
